# Laboratory results as given in patent publication US20200246317A1, “METHODS OF TREATING DIABETIC NEUROPATHY WITH A THIAZOLINE ANTI-HYPERALGESIC AGENT” (CERSCI THERAPEUTICS, INC., priority 2019, published 2020).
# Structures can show the parent of a compound that is named as a salt.
# Assay: Stability of dose formulations for GLP toxicology studies (0.5% HPMC)
# Format: physicochemical
# Conditions: 1.0 to 200 mg/mL in 0.5% HPMC
# Method: Formulation analysis and bioanalytical methods were validated for all GLP studies. Formulation of Compound 1 in water was validated over a range of 1 to 200 mg/mL using HPLC and in 0.5% hydroxypropyl methylcellulose (HPMC) over the same range.
# Dose formulation analysis for all good laboratory practice (GLP) general toxicology studies was performed using a validated high-performance liquid chromatography (HPLC)/ultraviolet (UV) analytical method (2750-001-001 Dose Formulation Method 1). The vehicle used in the in vivo toxicology studies was 0.5% HPMC). The analytical method utilized HPLC with monitoring at 227 nm with an isocratic mobile phase of methanol with the column temperature set to 25° C. Linearity over a range of 1.0 to 200 mg/mL was observed. Dose formulations over this range were stable at room temperature for up to 13 days and were stable when stored frozen at −20° C. for up to 85 days.
structure (smiles),measurement,setting,value
"CC1(C)SC(Nc2ccccc2O)=N[C@@H]1C(=O)O [Compound 1, (R)-2-(2-hydroxyphenylamino)-5,5-dimethyl-4,5-dihydrothiazole-4-carboxylic acid mono-hydrochloride]","stability of dose formulations, time stable",room temperature,up to 13 days
same,"stability of dose formulations, time stable",stored frozen at −20° C.,up to 85 days
